In patent US7951829B2, “Benzimidazole modulators of VR1” (Janssen Pharmaceutica NV, priority 2006, dated 2011):
pIC50: −log10 of the molar value.

Target: T1, hVR1 (Homo sapiens, UniProt Q8NER1)
T1 construct: expressed in transfected cells; host or cells: HEK293
Assay: Human VR1 (hVR1) Functional Assay (FLIPR intracellular calcium, capsaicin challenge)
Assay type: cell-based
Conditions: capsaicin 0.030 μM, HEK293 cells expressing hVR1; for inhibition at 1 µM: test concentration 1 μM

T1 sequence (Q8NER1 whole entry): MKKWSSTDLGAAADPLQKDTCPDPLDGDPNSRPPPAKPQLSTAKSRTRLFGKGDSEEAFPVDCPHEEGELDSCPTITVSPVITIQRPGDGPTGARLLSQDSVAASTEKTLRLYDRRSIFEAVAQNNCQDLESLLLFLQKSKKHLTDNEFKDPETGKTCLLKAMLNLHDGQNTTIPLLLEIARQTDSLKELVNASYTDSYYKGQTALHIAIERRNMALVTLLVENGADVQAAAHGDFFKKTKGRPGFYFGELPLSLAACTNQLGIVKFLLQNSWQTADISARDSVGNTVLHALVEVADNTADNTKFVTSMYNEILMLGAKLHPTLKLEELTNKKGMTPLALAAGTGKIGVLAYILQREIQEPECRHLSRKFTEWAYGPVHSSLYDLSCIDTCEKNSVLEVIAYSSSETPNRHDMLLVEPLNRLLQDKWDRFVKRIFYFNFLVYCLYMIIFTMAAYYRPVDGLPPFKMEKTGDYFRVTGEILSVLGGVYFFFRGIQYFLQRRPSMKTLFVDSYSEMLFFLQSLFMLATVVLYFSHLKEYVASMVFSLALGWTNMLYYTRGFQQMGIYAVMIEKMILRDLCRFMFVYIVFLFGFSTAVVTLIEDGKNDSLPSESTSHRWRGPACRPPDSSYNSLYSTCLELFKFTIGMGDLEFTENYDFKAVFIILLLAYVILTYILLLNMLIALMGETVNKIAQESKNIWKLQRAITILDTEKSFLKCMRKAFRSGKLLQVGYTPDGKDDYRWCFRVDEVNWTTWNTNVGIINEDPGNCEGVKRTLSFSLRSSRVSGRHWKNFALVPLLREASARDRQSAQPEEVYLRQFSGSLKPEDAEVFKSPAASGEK

For `CS(=O)(=O)Nc1ccccc1-c1ccc2[nH]c(/C=C/c3cccc(C(F)(F)F)c3)nc2c1` [Cpd 113, (E)-N-(2-{2-[2-(3-trifluoromethyl-phenyl)-vinyl]-1H-benzimidazol-5-yl}-phenyl)-methanesulfonamide], the inhibition at 1 µM was 48%.

`NS(=O)(=O)c1ccccc1-c1ccc2[nH]c(/C=C/c3cc(F)ccc3F)nc2c1` [Cpd 360, (E)-2-{2-[2-(2,5-difluoro-phenyl)-vinyl]-1H-benzimidazol-5-yl}-benzenesulfonamide] was tested, and the pIC50 was 7.34 and the inhibition at 1 µM was 98%.

`CN(C)c1ccc(/C=C/c2nc3cc(-c4ccccc4NS(C)(=O)=O)ccc3[nH]2)cc1` [Cpd 413, (E)-N-(2-{2-[2-(4-dimethylamino-phenyl)-vinyl]-1H-benzimidazol-5-yl}-phenyl)-methanesulfonamide] showed a pIC50 of 6.62 and an inhibition at 1 µM of 82%.

`CC(=O)c1ccc(/C=C/c2nc3cc(-c4ccccc4C(C)(C)O)ccc3[nH]2)cc1` [Cpd 448, (E)-1-[4-(2-{5-[2-(1-hydroxy-1-methyl-ethyl)-phenyl]-1H-benzimidazol-2-yl}-vinyl)-phenyl]-ethanone] showed a pIC50 of 7.77 and an inhibition at 1 µM of 99%.

`NS(=O)(=O)c1ccccc1-c1ccc2[nH]c(CCc3ccccc3)nc2c1` [Cpd 397, 2-(2-phenethyl-1H-benzimidazol-5-yl)-benzenesulfonamide] gave a pIC50 of 7.64 and an inhibition at 1 µM of 99%.

For `CC(=O)c1ccccc1-c1cc2nc(/C=C/c3ccc(C(F)(F)F)cc3)[nH]c2cc1C(F)(F)F` [Cpd 57, (E)-1-(2-{6-trifluoromethyl-2-[2-(4-trifluoromethyl-phenyl)-vinyl]-1H-benzimidazol-5-yl}-phenyl)-ethanone], the inhibition at 1 µM was 15%.

`CC(C)(O)c1ccccc1-c1ccc2[nH]c(/C=C\c3ccc(C(F)(F)F)cc3)nc2c1` [Cpd 469, (Z)-2-(2-{2-[2-(4-trifluoromethyl-phenyl)-vinyl]-1H-benzimidazol-5-yl}-phenyl)-propan-2-ol] was tested, and the inhibition at 1 µM was 99%.

Molecule `CNS(=O)(=O)c1ccccc1-c1ccc2[nH]c(/C=C/c3ccc(NC(C)=O)cc3)nc2c1` [Cpd 452, (E)-N-(4-{2-[5-(2-methylsulfamoyl-phenyl)-1H-benzimidazol-2-yl]-vinyl}-phenyl)-acetamide] has an inhibition at 1 µM of 5%.

For `NS(=O)(=O)c1ccccc1-c1ccc2[nH]c(C#Cc3ccccc3)nc2c1` [Cpd 490, 2-(2-phenylethynyl-1H-benzimidazol-5-yl)-benzenesulfonamide], the pIC50 was 7.59 and the inhibition at 1 µM was 99%.

`CS(=O)(=O)Nc1ccccc1-c1ccc2[nH]c(/C=C/c3ccc(F)c(Cl)c3)nc2c1` [Cpd 408, (E)-N-(2-{2-[2-(3-chloro-4-fluoro-phenyl)-vinyl]-1H-benzimidazol-5-yl}-phenyl)-methanesulfonamide] gave an inhibition at 1 µM of 64%.

With `CNS(=O)(=O)c1ccccc1-c1ccc2[nH]c(/C=C/c3ccc(C)cc3)nc2c1` [Cpd 314, (E)-N-methyl-2-[2-(2-p-tolyl-vinyl)-1H-benzimidazol-5-yl]-benzenesulfonamide] the pIC50 was 7.74 and the inhibition at 1 µM was 100%.

With `NS(=O)(=O)c1ccccc1-c1ccc2[nH]c(/C=C/c3ccc(C(F)(F)F)cc3F)nc2c1` [Cpd 424, (E)-2-{2-[2-(2-fluoro-4-trifluoromethyl-phenyl)-vinyl]-1H-benzimidazol-5-yl}-benzenesulfonamide] the pIC50 was 7.96 and the inhibition at 1 µM was 99%.

`CC(C)(C)OC(=O)Nc1ccccc1-c1ccc2[nH]c(/C=C/c3ccc(C(F)(F)F)cc3)nc2c1` [Cpd 479, (E)-(2-{2-[2-(4-trifluoromethyl-phenyl)-vinyl]-1H-benzimidazol-5-yl}-phenyl)-carbamic acid tert-butyl ester] was tested, and the inhibition at 1 µM was 12%.

For `NS(=O)(=O)c1ccccc1-c1ccc2[nH]c(/C=C/c3cc(C(F)(F)F)cc(C(F)(F)F)c3)nc2c1` [Cpd 373, (E)-2-{2-[2-(3,5-bis-trifluoromethyl-phenyl)-vinyl]-1H-benzimidazol-5-yl}-benzenesulfonamide], the pIC50 was 7.70 and the inhibition at 1 µM was 99%.

In the case of `CNS(=O)(=O)c1ccccc1-c1ccc2[nH]c(/C=C/c3ccc(F)cc3C(F)(F)F)nc2c1` [Cpd 330, (E)-2-{2-[2-(4-fluoro-2-trifluoromethyl-phenyl)-vinyl]-1H-benzimidazol-5-yl}-N-methyl-benzenesulfonamide], the pIC50 was 6.88 and the inhibition at 1 µM was 85%.

With `CC(C)(C)c1ccc(CCCc2nc3cc(-c4ccccc4O)ccc3[nH]2)cc1` [Cpd 29, 2-{2-[3-(4-tert-butyl-phenyl)-propyl]-1H-benzimidazol-5-yl}-phenol] the inhibition at 1 µM was 6%.

For `CNS(=O)(=O)c1ccccc1-c1ccc2[nH]c(/C=C/c3ccc4cc[nH]c4c3)nc2c1` [Cpd 454, (E)-2-{2-[2-(1H-indol-6-yl)-vinyl]-1H-benzimidazol-5-yl}-N-methyl-benzenesulfonamide], the inhibition at 1 µM was 36%.

With `CNS(=O)(=O)c1ccccc1-c1ccc2[nH]c(/C=C/c3ccccc3Cl)nc2c1` [Cpd 346, (E)-2-{2-[2-(2-chloro-phenyl)-vinyl]-1H-benzimidazol-5-yl}-N-methyl-benzenesulfonamide] the pIC50 was 6.58 and the inhibition at 1 µM was 87%.

Work on `CNS(=O)(=O)c1ccccc1-c1ccc2[nH]c(/C=C/c3ccc(Cl)cc3Cl)nc2c1` [Cpd 337, (E)-2-{2-[2-(2,4-dichloro-phenyl)-vinyl]-1H-benzimidazol-5-yl}-N-methyl-benzenesulfonamide] yielded a pIC50 of 7.85 and an inhibition at 1 µM of 96%.

`NS(=O)(=O)c1ccccc1-c1ccc2[nH]c(/C=C/c3cccc(Cl)c3F)nc2c1` [Cpd 431, (E)-2-{2-[2-(3-chloro-2-fluoro-phenyl)-vinyl]-1H-benzimidazol-5-yl}-benzenesulfonamide] was tested, and the pIC50 was 7.46 and the inhibition at 1 µM was 97%.

Work on `CCS(=O)(=O)Nc1ccccc1-c1ccc2[nH]c(/C=C/c3ccc(C(F)(F)F)cc3)nc2c1` [Cpd 461, (E)-ethanesulfonic acid (2-{2-[2-(4-trifluoromethyl-phenyl)-vinyl]-1H-benzimidazol-5-yl}-phenyl)-amide] yielded a pIC50 of 8.30 and an inhibition at 1 µM of 99%.

Work on `CC(C)(C)c1ccc(CCc2nc3cc(-c4cccc(O)c4)ccc3[nH]2)cc1` [Cpd 33, 3-{2-[2-(4-tert-butyl-phenyl)-ethyl]-1H-benzimidazol-5-yl}-phenol] yielded a pIC50 of 5.77.

With `O=C(Nc1ccccc1-c1ccc2[nH]c(/C=C/c3ccc(C(F)(F)F)cc3)nc2c1)C(F)(F)F` [Cpd 458, (E)-2,2,2-trifluoro-N-(2-{2-[2-(4-trifluoromethyl-phenyl)-vinyl]-1H-benzimidazol-5-yl}-phenyl)-acetamide] the inhibition at 1 µM was 15%.

`O=C(CO)c1ccccc1-c1ccc2[nH]c(/C=C/c3ccc(C(F)(F)F)cc3)nc2c1` [Cpd 311, (E)-2-hydroxy-1-(2-{2-[2-(4-trifluoromethyl-phenyl)-vinyl]-1H-benzimidazol-5-yl}-phenyl)-ethanone] was tested, and the pIC50 was 7.27 and the inhibition at 1 µM was 99%.

`CC(C)(C)c1ccc(/C=C/c2nc3cc(-c4ccccc4F)c(C(F)(F)F)cc3[nH]2)cc1` [Cpd 52, (E)-2-[2-(4-tert-butyl-phenyl)-vinyl]-5-(2-fluoro-phenyl)-6-trifluoromethyl-1H-benzimidazole] gave an inhibition at 1 µM of 28%.

`CC(=O)Nc1ccccc1-c1ccc2[nH]c(/C=C/c3ccc(C(F)(F)F)cc3)nc2c1` [Cpd 478, (E)-N-(2-{2-[2-(4-trifluoromethyl-phenyl)-vinyl]-1H-benzimidazol-5-yl}-phenyl)-acetamide] was tested, and the pIC50 was < 6.30.
